This experiment addresses T1, F508del (Homo sapiens, UniProt P13569, DEL508-508).
T1 construct: expressed in transfected cells
Kind of experiment: Protocol 1: membrane potential optical assay (FLIPR III, voltage sensing dye), identification of potentiator compounds. Particulars: Table 3, compounds of Table 1. The class given is cell-based. The method, boiled down:
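NIH3T3 F508del cells, 27° C × 24 hrs; compound/DMSO pretreat → redistribution dye load → single forskolin addition with Cl⁻ gradient (gluconate-substituted bath, HEPES pH 7.4). FLIPR III membrane-potential fluorescence read.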

The record followed here is US10758534B2 (Vertex Pharmaceuticals Incorporated, priority 2014, dated 2020).

T1 sequence (P13569 with tags, fused parts or gaps DEL508-508): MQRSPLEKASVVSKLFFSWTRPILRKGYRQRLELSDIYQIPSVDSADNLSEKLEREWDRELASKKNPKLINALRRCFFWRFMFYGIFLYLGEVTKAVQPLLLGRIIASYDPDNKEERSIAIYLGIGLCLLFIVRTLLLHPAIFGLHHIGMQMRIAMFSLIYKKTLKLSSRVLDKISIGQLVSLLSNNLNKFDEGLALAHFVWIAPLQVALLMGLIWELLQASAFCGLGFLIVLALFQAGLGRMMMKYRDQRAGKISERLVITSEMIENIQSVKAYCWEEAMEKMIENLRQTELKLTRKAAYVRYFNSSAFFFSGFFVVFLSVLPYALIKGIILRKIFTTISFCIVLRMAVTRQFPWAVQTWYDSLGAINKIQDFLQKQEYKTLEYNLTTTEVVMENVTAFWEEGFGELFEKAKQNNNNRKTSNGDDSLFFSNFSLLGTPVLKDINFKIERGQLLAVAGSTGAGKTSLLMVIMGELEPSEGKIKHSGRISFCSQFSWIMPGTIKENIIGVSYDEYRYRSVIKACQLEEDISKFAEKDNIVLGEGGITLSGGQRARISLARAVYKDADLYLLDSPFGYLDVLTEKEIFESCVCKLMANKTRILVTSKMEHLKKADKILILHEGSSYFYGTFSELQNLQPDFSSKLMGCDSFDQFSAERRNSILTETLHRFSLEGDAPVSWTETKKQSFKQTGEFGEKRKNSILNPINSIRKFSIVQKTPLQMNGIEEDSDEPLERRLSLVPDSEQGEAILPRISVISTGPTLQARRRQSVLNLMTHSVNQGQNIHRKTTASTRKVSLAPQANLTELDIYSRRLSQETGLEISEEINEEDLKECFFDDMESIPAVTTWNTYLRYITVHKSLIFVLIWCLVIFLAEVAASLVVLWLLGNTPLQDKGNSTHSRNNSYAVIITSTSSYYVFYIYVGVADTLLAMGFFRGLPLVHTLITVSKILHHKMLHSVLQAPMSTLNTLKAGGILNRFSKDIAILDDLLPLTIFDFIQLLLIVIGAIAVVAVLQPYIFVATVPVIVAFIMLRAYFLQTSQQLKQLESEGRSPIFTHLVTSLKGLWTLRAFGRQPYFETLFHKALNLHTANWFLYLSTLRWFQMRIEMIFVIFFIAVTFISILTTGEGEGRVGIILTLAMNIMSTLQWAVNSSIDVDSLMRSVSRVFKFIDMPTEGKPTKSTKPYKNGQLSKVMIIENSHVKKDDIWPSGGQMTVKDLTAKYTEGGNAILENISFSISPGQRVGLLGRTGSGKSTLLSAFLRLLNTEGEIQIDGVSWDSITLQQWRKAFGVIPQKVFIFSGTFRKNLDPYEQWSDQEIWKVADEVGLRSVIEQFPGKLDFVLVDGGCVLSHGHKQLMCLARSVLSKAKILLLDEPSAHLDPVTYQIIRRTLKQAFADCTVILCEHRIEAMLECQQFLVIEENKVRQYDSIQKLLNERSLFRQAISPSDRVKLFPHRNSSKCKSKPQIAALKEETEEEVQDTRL

Regarding `CCOc1cccc2c1CN(Cc1c(C)cc(C)cc1C)C2(C)C(=O)NS(=O)(=O)c1cscn1` (centres unmarked) [Compound 1542, 4-ethoxy-1-methyl-N-thiazol-4-ylsulfonyl-2-[(2,4,6-trimethylphenyl)methyl]isoindoline-1-carboxamide], the EC30 result is “+++ (“+++” means <3 uM)”.
Turning to `CC(C)COc1ccc(F)c(-c2ccc(C(=O)NS(=O)(=O)c3cccc(N)n3)c(N3CCC(C)CC3)n2)c1` [Compound 1109, N-[(6-amino-2-pyridyl)sulfonyl]-6-(2-fluoro-5-isobutoxy-phenyl)-2-(4-methyl-1-piperidyl)pyridine-3-carboxamide], the EC30 result is “++ (“++” means between 3 uM and 10 uM)”.
Turning to `CC(C)COc1cc(F)cc(-c2ccc(C(=O)NS(=O)(=O)c3ccccc3)c(N3C[C@@H](C)CC3(C)C)n2)c1` [Compound 1356, N-(benzenesulfonyl)-6-(3-fluoro-5-isobutoxy-phenyl)-2-[(4S)-2,2,4-trimethylpyrrolidin-1-yl]pyridine-3-carboxamide], the EC30 result was “+++ (“+++” means <3 uM)”.
On to `CC(C)COc1cc(F)cc(-c2ccc(C(=O)NS(=O)(=O)c3cccc(N)n3)c(OCCc3ccccn3)n2)c1` [Compound 1625, N-[(6-amino-2-pyridyl)sulfonyl]-6-(3-fluoro-5-isobutoxy-phenyl)-2-[2-(2-pyridyl)ethoxy]pyridine-3-carboxamide], for which the EC30 result is “++ (“++” means between 3 uM and 10 uM)”.
As to `CC1CN(c2ncccc2C(=O)NS(=O)(=O)c2cccc(Nc3cc(F)ccc3Cl)n2)C(C)(C)C1` (centres unmarked) [Compound 1941, N—[[6-(2-chloro-5-fluoro-anilino)-2-pyridyl]sulfonyl]-2-(2,2,4-trimethylpyrrolidin-1-yl)pyridine-3-carboxamide], the EC30 entry is “+++ (“+++” means <3 uM)”.
`Cc1cc(C)c(CN2C(C(=O)NS(=O)(=O)c3cc(N)ccc3C)c3ccccc3C2(C)C)c(C)c1` (centres unmarked) [Compound 840, N-(5-amino-2-methyl-phenyl)sulfonyl-3,3-dimethyl-2-[(2,4,6-trimethylphenyl)methyl]isoindoline-1-carboxamide]: the EC30 result is “+++ (“+++” means <3 uM)”.
Take `COc1ccccc1Nc1cccc(S(=O)(=O)NC(=O)c2cccnc2N2CC(C)CC2(C)C)n1` (centres unmarked) [Compound 1959, N—[[6-(2-methoxyanilino)-2-pyridyl]sulfonyl]-2-(2,2,4-trimethylpyrrolidin-1-yl)pyridine-3-carboxamide]: the EC30 result is “+++ (“+++” means <3 uM)”.
For `Cc1cc(C)c(Oc2nc(-c3cccnc3OC(C)C)ccc2C(=O)NS(=O)(=O)c2cccc(N)n2)c(C)c1` [Compound 909, N-[(6-amino-2-pyridyl)sulfonyl]-6-(2-isopropoxy-3-pyridyl)-2-(2,4,6-trimethylphenoxy)pyridine-3-carboxamide], the EC30 entry is “+++ (“+++” means <3 uM)”.
For the compound `CC1CN(c2ncccc2C(=O)NS(=O)(=O)c2cccc(OCc3cccc(C(F)(F)F)c3)n2)C(C)(C)C1` (centres unmarked) [Compound 1953, N—[[6-[[3-(trifluoromethyl)phenyl]methoxy]-2-pyridyl]sulfonyl]-2-(2,2,4-trimethylpyrrolidin-1-yl)pyridine-3-carboxamide], the EC30 entry is “+++ (“+++” means <3 uM)”.
For the compound `CC(C)[C@H](C)Nc1ccc(-c2ccc(C(=O)NS(=O)(=O)c3cccc(N)n3)c(N3[C@H](C)CC[C@@H]3C)n2)cn1` [Compound 1399, N-[(6-amino-2-pyridyl)sulfonyl]-6-[6-[[(1 S)-1,2-dimethylpropyl]amino]-3-pyridyl]-2-[(2S,5R)-2,5-dimethylpyrrolidin-1-yl]pyridine-3-carboxamide], the EC30 entry is listed as “+++ (“+++” means <3 uM)”.
On to `CCCC/C=C/c1cc(C(=O)NS(=O)(=O)c2cccc(N)n2)c(N2C[C@@H](C)CC2(C)C)nc1C(C)(C)C` [Compound 1377, N-[(6-amino-2-pyridyl)sulfonyl]-6-tert-butyl-5-[(E)-hex-1-enyl]-2-[(4S)-2,2,4-trimethylpyrrolidin-1-yl]pyridine-3-carboxamide], for which the EC30 entry was “+++ (“+++” means <3 uM)”.
In the case of `Cc1ccc(F)c(-c2ccc(C(=O)NS(=O)(=O)c3ccc[nH]c3=O)c(N3C[C@@H](C)CC3(C)C)n2)c1` [Compound 1946, 6-(2-fluoro-5-methyl-phenyl)-N-[(2-oxo-1H-pyridin-3-yl)sulfonyl]-2-[(4S)-2,2,4-trimethylpyrrolidin-1-yl]pyridine-3-carboxamide], the EC30 entry is reported as “+++ (“+++” means <3 uM)”.
With `Cc1cc(C)c(Oc2nc(-c3ccc(CO)cc3)ccc2C(=O)NS(=O)(=O)c2cccc(N)n2)c(C)c1` [Compound 1183, N-[(6-amino-2-pyridyl)sulfonyl]-6-[4-(hydroxymethyl)phenyl]-2-(2,4,6-trimethylphenoxy)pyridine-3-carboxamide] the entry was “+ (“+” means greater than 10 uM)”.
As to `CC(C)Oc1ccc(-c2ccc(C(=O)NS(=O)(=O)c3cccc(N)n3)c(N3Cc4ccccc4C3)n2)cn1` [Compound 1072, N-[(6-amino-2-pyridyl)sulfonyl]-2-isoindolin-2-yl-6-(6-isopropoxy-3-pyridyl)pyridine-3-carboxamide], the EC30 result is “++ (“++” means between 3 uM and 10 uM)”.
For `C#Cc1cccc(Oc2cccc(S(=O)(=O)NC(=O)c3cccnc3N3CC(C)CC3(C)C)n2)c1` (centres unmarked) [Compound 1782, N—[[6-(3-ethynylphenoxy)-2-pyridyl]sulfonyl]-2-(2,2,4-trimethylpyrrolidin-1-yl)pyridine-3-carboxamide], the EC30 result is given as “+++ (“+++” means <3 uM)”.
As for `CCOc1cccc(-c2ccc(C(=O)NS(=O)(=O)c3ccc[nH]c3=O)c(N3C[C@@H](C)CC3(C)C)n2)c1F` [Compound 1802, 6-(3-ethoxy-2-fluoro-phenyl)-N-[(2-oxo-1H-pyridin-3-yl)sulfonyl]-2-[(4S)-2,2,4-trimethylpyrrolidin-1-yl]pyridine-3-carboxamide], the EC30 result is given as “+++ (“+++” means <3 uM)”.
For `Cc1ccnc(C)c1Oc1nc(-c2cc(F)cc(OCC(C)C)c2)ccc1C(=O)NS(=O)(=O)c1cccc(N)n1` [Compound 1574, N-[(6-amino-2-pyridyl)sulfonyl]-2-[(2,4-dimethyl-3-pyridyl)oxy]-6-(3-fluoro-5-isobutoxy-phenyl)pyridine-3-carboxamide], the EC30 entry was “++ (“++” means between 3 uM and 10 uM)”.
As for `Cc1cn(-c2ccc(C(=O)NS(=O)(=O)c3cccnc3N)c(N3C[C@@H](C)CC3(C)C)n2)nc1OCC(C)C` [Compound 1758, N-[(2-amino-3-pyridyl)sulfonyl]-6-(3-isobutoxy-4-methyl-pyrazol-1-yl)-2-[(4S)-2,2,4-trimethylpyrrolidin-1-yl]pyridine-3-carboxamide], the EC30 result is “+++ (“+++” means <3 uM)”.
`CC(C)COc1cc(F)cc(-c2ccc(C(=O)NS(=O)(=O)c3cccc(N)n3)c(N3CCC[C@H](C)C3)n2)c1` [Compound 1193, N-[(6-amino-2-pyridyl)sulfonyl]-6-(3-fluoro-5-isobutoxy-phenyl)-2-[(3S)-3-methyl-1-piperidyl]pyridine-3-carboxamide]: the EC30 entry is “+++ (“+++” means <3 uM)”.
In the case of `Cc1ccc(-c2nc(C(C)(C)C)ccc2C(=O)NS(=O)(=O)c2cccc(N)c2)c(F)c1` [Compound 1331, N-(3-aminophenyl)sulfonyl-6-tert-butyl-2-(2-fluoro-4-methyl-phenyl)pyridine-3-carboxamide], the EC30 result is listed as “+ (“+” means greater than 10 uM)”.
